The text below walks through data of patent US20120165306A1, “PYRAZINYLPYRIDINES USEFUL FOR THE TREATMENT OF PROLIFERATIVE DISEASES” (priority 2009, published 2012).

In this assay the target is Cdk9/cyclinT1 (Homo sapiens, UniProt P50750). Kind of assay: Cdk9/cyclinT1 kinase assay (IMAP or Alpha Screen protocol).
Sequence of Cdk9/cyclinT1 (P50750 whole entry): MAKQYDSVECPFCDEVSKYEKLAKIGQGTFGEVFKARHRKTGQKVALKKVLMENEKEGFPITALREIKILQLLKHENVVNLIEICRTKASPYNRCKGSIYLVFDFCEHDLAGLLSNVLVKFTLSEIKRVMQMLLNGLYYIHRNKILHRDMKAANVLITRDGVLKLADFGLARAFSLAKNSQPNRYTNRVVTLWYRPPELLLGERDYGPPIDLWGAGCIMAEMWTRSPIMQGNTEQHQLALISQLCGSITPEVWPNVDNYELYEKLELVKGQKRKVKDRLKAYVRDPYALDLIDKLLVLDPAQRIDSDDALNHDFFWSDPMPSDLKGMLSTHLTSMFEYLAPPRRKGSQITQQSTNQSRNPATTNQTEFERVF
Sequence of Cdk9/cyclinT1 (O60563 whole entry partner): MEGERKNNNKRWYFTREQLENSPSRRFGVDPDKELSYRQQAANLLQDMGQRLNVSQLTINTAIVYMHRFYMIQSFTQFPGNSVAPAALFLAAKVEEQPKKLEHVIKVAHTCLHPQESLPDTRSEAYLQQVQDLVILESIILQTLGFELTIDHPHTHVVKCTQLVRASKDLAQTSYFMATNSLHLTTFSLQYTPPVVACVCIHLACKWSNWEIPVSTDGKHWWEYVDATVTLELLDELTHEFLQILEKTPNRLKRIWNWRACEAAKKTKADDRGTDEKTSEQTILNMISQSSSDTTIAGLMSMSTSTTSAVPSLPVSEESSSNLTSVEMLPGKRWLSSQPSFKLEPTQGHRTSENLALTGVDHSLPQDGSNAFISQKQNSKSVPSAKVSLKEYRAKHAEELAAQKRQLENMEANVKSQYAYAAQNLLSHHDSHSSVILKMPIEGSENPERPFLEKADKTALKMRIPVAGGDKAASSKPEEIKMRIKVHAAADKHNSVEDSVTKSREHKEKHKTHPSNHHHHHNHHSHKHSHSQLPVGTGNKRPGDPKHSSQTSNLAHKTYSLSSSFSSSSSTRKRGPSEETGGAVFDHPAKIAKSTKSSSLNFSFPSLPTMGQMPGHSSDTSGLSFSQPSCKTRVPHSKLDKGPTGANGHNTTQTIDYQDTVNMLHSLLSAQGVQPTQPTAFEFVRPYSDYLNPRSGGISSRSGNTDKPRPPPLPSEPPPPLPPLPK
Source text: Cdk9/cyclinT1 IMAP Protocol
Fluorescence polarization (FP) is used for detection.
Cdk9/cyclinT1 Alpha Screen Protocol
`O=C(Nc1cc(-c2cnccn2)c(Cl)cn1)[C@@H]1CCCNC1` [Example 1, (R)-Piperidine-3-carboxylic acid (5-chloro-4-pyrazin-2-yl-pyridin-2-yl)-amide] showed an IC50 of 2100 nM.

In turn, `CC(C)(C)OC(=O)N1CCC[C@@H](C(=O)Nc2cc(-c3cncc(NCC4CCOCC4)n3)c(Cl)cn2)C1` [Example 2, (R)-3-(5-Chloro-4-{6-[(tetrahydro-pyran-4-ylmethyl)-amino]-pyrazin-2-yl}-pyridin-2-ylcarbamoyl)-piperidine-1-carboxylic acid tert-butyl ester] showed a half-maximal inhibitory concentration (IC50) of 16 nM.

Consider `COCCN1CCC[C@@H](C(=O)Nc2cc(-c3cncc(NCC4CCOCC4)n3)c(Cl)cn2)C1` [Example 3], for which the half-maximal inhibitory concentration (IC50) came out at 316 nM.

As to `CS(=O)(=O)N1CCC[C@@H](C(=O)Nc2cc(-c3cncc(NCC4CCOCC4)n3)c(Cl)cn2)C1` [Example 4, (R)-1-Methanesulfonyl-piperidine-3-carboxylic acid (5-chloro-4-{6-[(tetrahydro-pyran-4-ylmethyl)-amino]-pyrazin-2-yl}-pyridin-2-yl)-amide], 179 nM corresponded to half-maximal inhibition (IC50).

`CC(=O)N1CCC[C@@H](C(=O)Nc2cc(-c3cncc(NCC4CCOCC4)n3)c(Cl)cn2)C1` [Example 5, (R)-1-Acetyl-piperidine-3-carboxylic acid (5-chloro-4-{6-[(tetrahydro-pyran-4-ylmethyl)-amino]-pyrazin-2-yl}-pyridin-2-yl)-amide] displayed a half-maximal inhibitory concentration (IC50) of 268 nM.

With `CS(=O)(=O)N1CCC[C@H](C(=O)Nc2cc(-c3cncc(NCC4CCOCC4)n3)c(Cl)cn2)C1` [Example 6], the IC50 was < 8 nM.

In turn, `CCN1CCC[C@@H](C(=O)Nc2cc(-c3cncc(NCC4CCOCC4)n3)c(Cl)cn2)C1` [Example 7, (R)-1-Ethyl-piperidine-3-carboxylic acid (5-chloro-4-{6-[(tetrahydro-pyran-4-ylmethyl)-amino]-pyrazin-2-yl}-pyridin-2-yl)-amide] came in with an IC50 of 229 nM.

`O=C(Nc1cc(-c2cncc(NCC3CCOCC3)n2)c(Cl)cn1)[C@H]1CCCNC1` [Example 8, (S)-Piperidine-3-carboxylic acid (5-chloro-4-{6-[(tetrahydro-pyran-4-ylmethyl)-amino]-pyrazin-2-yl}-pyridin-2-yl)-amide]: half-maximal inhibition (IC50) was put at 28 nM.

Regarding `O=C(Nc1cc(-c2cncc(NCC3CCOCC3)n2)c(Cl)cn1)[C@@H]1CCCNC1` [Example 9, (R)-Piperidine-3-carboxylic acid (5-chloro-4-{6-[(tetrahydro-pyran-4-ylmethyl)-amino]-pyrazin-2-yl}-pyridin-2-yl)-amide], the IC50 was < 8 nM.

Turning to `COCC(=O)Nc1cc(-c2cncc(NCC3CCOCC3)n2)c(Cl)cn1` [Example 10, N-(5-Chloro-4-{6-[(tetrahydro-pyran-4-ylmethyl)-amino]-pyrazin-2-yl}-pyridin-2-yl)-2-methoxy-acetamide], the IC50 is 124 nM.

As for `CC(=O)Nc1cc(-c2cncc(NCC3CCOCC3)n2)c(Cl)cn1` [Example 11, N-(5-Chloro-4-{6-[(tetrahydro-pyran-4-ylmethyl)-amino]-pyrazin-2-yl}-pyridin-2-yl)-acetamide], the IC50 worked out at 29 nM.

With `CC(C)C(=O)Nc1cc(-c2cncc(NCC3CCOCC3)n2)c(Cl)cn1` [Example 12, N-(5-Chloro-4-{6-[(tetrahydro-pyran-4-ylmethyl)-amino]-pyrazin-2-yl}-pyridin-2-yl)-isobutyramide], the IC50 is < 8 nM.

For the compound `O=C(Nc1cc(-c2cncc(NCC3CCOCC3)n2)c(Cl)cn1)C1CCCC1` [Example 13, Cyclopentanecarboxylic acid (5-chloro-4-{6-[(tetrahydro-pyran-4-ylmethyl)-amino]-pyrazin-2-yl}-pyridin-2-yl)-amide], inhibition was half-maximal at 15 nM (IC50).

As to `O=C(Nc1cc(-c2cncc(NCc3ccccc3F)n2)c(Cl)cn1)[C@@H]1CCCNC1` [Example 14, (R)-Piperidine-3-carboxylic acid {5-chloro-4-[6-(2-fluoro-benzylamino)-pyrazin-2-yl]-pyridin-2-yl}-amide], the IC50 was < 8 nM.

Regarding `O=C(Nc1cc(-c2cncc(NCC3CCOCC3)n2)c(Cl)cn1)C1CCOCC1` [Example 15, Tetrahydro-pyran-4-carboxylic acid (5-chloro-4-{6-[(tetrahydro-pyran-4-ylmethyl)-amino]-pyrazin-2-yl}-pyridin-2-yl)-amide], the IC50 is < 8 nM.

For the compound `O=C(Nc1cc(-c2cncc(NCc3cncc(F)c3)n2)c(Cl)cn1)[C@@H]1CCCNC1` [Example 16, (R)-Piperidine-3-carboxylic acid (5-chloro-4-{6-[(5-fluoro-pyridin-3-ylmethyl)-amino]-pyrazin-2-yl}-pyridin-2-yl)-amide], the IC50 is < 8 nM.

`O=C(Nc1cc(-c2cncc(NCc3ccccn3)n2)c(Cl)cn1)[C@@H]1CCCNC1` [Example 17, (R)-Piperidine-3-carboxylic acid (5-chloro-4-{6-[(pyridin-2-ylmethyl)-amino]-pyrazin-2-yl}-pyridin-2-yl)-amide] returned an IC50 of 121 nM.

With `O=C(Nc1cc(-c2cncc(NCc3cccc(OC(F)F)c3)n2)c(Cl)cn1)[C@@H]1CCCNC1` [Example 18, (R)-Piperidine-3-carboxylic acid {5-chloro-4-[6-(3-difluoromethoxy-benzylamino)-pyrazin-2-yl]-pyridin-2-yl}-amide], the half-inhibitory concentration (IC50) is < 8 nM.

The compound `CC(=O)NCCNc1cncc(-c2cc(NC(=O)[C@@H]3CCCNC3)ncc2Cl)n1` [Example 19, (R)-Piperidine-3-carboxylic acid {4-[6-(2-acetylamino-ethylamino)-pyrazin-2-yl]-5-chloro-pyridin-2-yl}-amide] returned a half-inhibitory concentration (IC50) of 153 nM.

Turning to `O=C(Nc1cc(-c2cncc(NCc3ccc(F)cc3)n2)c(Cl)cn1)[C@@H]1CCCNC1` [Example 20, (R)-Piperidine-3-carboxylic acid {5-chloro-4-[6-(4-fluoro-benzylamino)-pyrazin-2-yl]-pyridin-2-yl}-amide], the IC50 is < 8 nM.

Compound `O=C(Nc1cc(-c2cncc(NCC3CCOCC3)n2)c(Cl)cn1)C1CNCCO1` (stereo not drawn) [Example 21, Morpholine-2-carboxylic acid (5-chloro-4-{6-[(tetrahydro-pyran-4-ylmethyl)-amino]-pyrazin-2-yl}-pyridin-2-yl)-amide] came in with an IC50 of 12.8 nM.

`O=C(Nc1cc(-c2cncc(NCC3CCOCC3)n2)c(Cl)cn1)C1CCNCC1` [Example 22, Piperidine-4-carboxylic acid (5-chloro-4-{6-[(tetrahydro-pyran-4-ylmethyl)-amino]-pyrazin-2-yl}-pyridin-2-yl)-amide]: the IC50 came out at 8 nM.

In turn, `O=C(Nc1cc(-c2cncc(NCC3CCOCC3)n2)c(Cl)cn1)C1CCCOC1` (stereo not drawn) [Example 23, Tetrahydro-pyran-3-carboxylic acid (5-chloro-4-{6-[(tetrahydro-pyran-4-ylmethyl)-amino]-pyrazin-2-yl}-pyridin-2-yl)-amide] yielded a half-inhibitory concentration (IC50) of 9 nM.

`Cc1ncc(NCC2CCOCC2)nc1-c1cc(NC(=O)[C@@H]2CCCNC2)ncc1Cl` [Example 24, (R)-Piperidine-3-carboxylic acid (5-chloro-4-{3-methyl-6-[(tetrahydro-pyran-4-ylmethyl)-amino]-pyrazin-2-yl}-pyridin-2-yl)-amide]: the half-inhibitory concentration (IC50) was < 8 nM.

In the case of `O=C(Nc1cc(-c2cncc(NCc3cccnc3)n2)c(Cl)cn1)[C@@H]1CCCNC1` [Example 25, (R)-Piperidine-3-carboxylic acid (5-chloro-4-{6-[(pyridin-3-ylmethyl)-amino]-pyrazin-2-yl}-pyridin-2-yl)-amide], the IC50 came to 12 nM.

As for `O=C(Nc1cc(-c2cncc(NCC3CCCOC3)n2)c(Cl)cn1)[C@@H]1CCCNC1` (stereo partly drawn) [Example 26, (R)-Piperidine-3-carboxylic acid (5-chloro-4-{6-[(tetrahydro-pyran-3-ylmethyl)-amino]-pyrazin-2-yl}-pyridin-2-yl)-amide], the 50% inhibitory concentration (IC50) is < 8 nM.

As for `O=C(Nc1cc(-c2cncc(NC3CCOCC3)n2)c(Cl)cn1)[C@@H]1CCCNC1` [Example 27, (R)-Piperidine-3-carboxylic acid {5-chloro-4-[6-(tetrahydro-pyran-4-ylamino)-pyrazin-2-yl]-pyridin-2-yl}-amide], the 50% inhibitory concentration (IC50) amounted to 48 nM.

On to `C[C@@H](O)CNc1cncc(-c2cc(NC(=O)[C@@H]3CCCNC3)ncc2Cl)n1` [Example 28, (R)-Piperidine-3-carboxylic acid {5-chloro-4-[6-((R)-2-hydroxy-propylamino)-pyrazin-2-yl]-pyridin-2-yl}-amide], for which the half-maximal inhibitory concentration (IC50) was 15 nM.

Consider `C[C@H](O)CNc1cncc(-c2cc(NC(=O)[C@@H]3CCCNC3)ncc2Cl)n1` [Example 29, (R)-Piperidine-3-carboxylic acid {5-chloro-4-[6-((S)-2-hydroxy-propylamino)-pyrazin-2-yl]-pyridin-2-yl}-amide], for which the half-inhibitory concentration (IC50) came out at 37 nM.

Turning to `CN(CC1CCOCC1)c1cncc(-c2cc(NC(=O)[C@@H]3CCCNC3)ncc2Cl)n1` [Example 30, (R)-Piperidine-3-carboxylic acid (5-chloro-4-{6-[methyl-(tetrahydro-pyran-4-ylmethyl)-amino]-pyrazin-2-yl}-pyridin-2-yl)-amide], the 50% inhibitory concentration (IC50) was 12 nM.

Take `O=C(Nc1cc(-c2cncc(NC[C@H]3CCCO3)n2)c(Cl)cn1)[C@@H]1CCCNC1` [Example 31, (R)-Piperidine-3-carboxylic acid [5-chloro-4-(6-{[(R)-1-(tetrahydro-furan-2-yl)methyl]-amino}-pyrazin-2-yl)-pyridin-2-yl]-amide]: inhibition was half-maximal at 19 nM (IC50).

Compound `O=C(Nc1cc(-c2cncc(NCCN3CCCC3=O)n2)c(Cl)cn1)[C@@H]1CCCNC1` [Example 32, (R)-Piperidine-3-carboxylic acid (5-chloro-4-{6-[2-(2-oxo-pyrrolidin-1-yl)-ethylamino]-pyrazin-2-yl}-pyridin-2-yl)-amide] showed a half-maximal inhibitory concentration (IC50) of 20 nM.

On to `O=C(Nc1cc(-c2cncc(NC[C@@H]3CCCO3)n2)c(Cl)cn1)[C@@H]1CCCNC1` [Example 33, (R)-Piperidine-3-carboxylic acid [5-chloro-4-(6-{[(S)-1-(tetrahydro-furan-2-yl)methyl]-amino}-pyrazin-2-yl)-pyridin-2-yl]-amide], for which the IC50 came to 15 nM.

The IC50 is the midpoint of a concentration-inhibition curve.
